Here are results for five molecules from patent publication US7253258B2, “Proline rich acidic protein and uses thereof” (National University of Singapore, priority 2003, dated 2007).

Values joined by “and” are separate entries in the source; they are usually repeats but may differ in a detail not shown here. Identical values can stand only once.

The subject of assay [1] is PRAP expression in HCT116 cells. The assay is described as follows: Real time RT-PCR of PRAP expression in HCT116 cells treated with TSA, DAC or both. Format: cell-based, human. As to conditions: HCT116, 72 h, TSA (300 ng), DAC (1 μm); for PRAPcp-GAPDHcp: crossing point of PRAP normalized by GAPDH: untreated 13.97. Here is the method:
(§1) Sigma), trichostatin A (TSA, 300 nM; Sigma) or a combination of both drugs for 72 hours. For the combined treatment, cells were treated with 1 μM DAC for 24 h followed by the addition of 300 nM TSA for another 48 h. Total RNA was extracted using the […] (Qiagen). The experiment was performed in duplicates and the average result calculated. Primers for real-time PCR were designed using the LightCycler Probe Design Software, version 1.0 (Roche, France). […] Real-time PCR was performed on the LightCycler (Roche, France) using the LightCycler-RNA amplification Kit SYBR Green I (Roche, France). The specificity of the amplification was assessed by electrophoretic separation of the amplified products and melting curve analysis. […] The efficiencies of both amplifications were calculated according to the slope of the standard curves. Relative PRAP expression was quantified after normalisation with GAPDH.
A general note: Real-time PCR tracks product formation cycle by cycle.

In assay [2] the test system is PRAP expression in HT29 cells. The assay is described as follows: Real time RT-PCR of PRAP expression in HT29 cells treated with TSA, DAC or both. As to conditions: HT29, 72 h, TSA (300 ng), DAC (1 μm); for PRAPcp-GAPDHcp: crossing point of PRAP normalized by GAPDH: untreated 12.63. Format: cell-based, human. The protocol:
as §1

In assay [3] the test system is PRAP gene expression in HT29 cells. The assay is described as follows: Northern blot of PRAP gene expression in butyrate-treated HT29 cells. As to conditions: HT29, 5 mM butyrate. In kind it is cell-based, human. Here is the method: The HT29, HCT116, HepG2 and HeLa cell lines were purchased from American Type Culture Collection (Manassas, Va.). HT29 and HCT116 cells were cultured in McCoy's 5A (Sigma Chemical Co., St. Louis, Mo.), HepG2 in DMEM and HeLa in RPMI, all supplemented with 10% fetal bovine serum (Life Technologies, Inc., Gaithersburg, Md.), at 37° C. in a 5% CO2 humidified atmosphere. Cells were treated with 5 mM sodium butyrate (final concentration in media; Life Technologies, Inc) or vehicle. Total RNA was prepared from the cells at the respective time points from three separate flasks.
In a separate experiment, total RNA from tissues and cell lines was prepared using the guanidinium thiocyanate method as previously described (MacDonald et al., 1987). 15 μg of RNA was separated by formaldehyde/agarose gel electrophoresis, transferred to nylon membrane (Qiabrane, Qiagen, Hilden, Germany), cross-linked (Stratalinker, Stratagene, La Jolla, Calif.), and hybridised to cDNA probes, as previously described (Wang et al., 1999). […] Relative mRNA levels were quantified by Typhoon phospho-imager (Amersham Bioscience, UK) and normalised against 18S levels. Normal/Tumour (N/T) ratios were obtained by dividing the normalised relative densitometric units of the normal mucosa by tumour.

In assay [4] the test system is PRAP expression in HT29 cells. The assay is described as follows: Western blot of PRAP expression in HT29 cells at different butyrate concentrations. Format: cell-based, human. An excerpt: Cells or tissues were extracted with RIPA buffer (1×PBS, 1% Nonidet P-40, 0.5% sodium deoxychelate and 0.1% SDS. Protease inhibitors: PMSF, aprotinin, pepstatin A and leupeptin were freshly added to the RIPA buffer at the point of usage). […] The secondary antibody was either HRP-conjugated anti-rabbit IgG (BioRad, Hercules, Calif., 1:10,000) or HRP-conjugated anti-mouse antibody (Santa Cruz Biotechnology, Santa Cruz, Calif., 1:20,000). The proteins were visualized using the SuperSignal® West Dura Extended (Pierce) chemiluminescent substrate and exposed to an autoradiograph film.

Assay [5] concerns HeLa cells. The assay is described as follows: Cell numbers after transfection (overexpression) in HeLa cells, haemocytometer count after Trypan Blue. As to conditions: 72 h after transfection. In kind it is cell-based, human. The protocol: The cDNA fragment was cloned into pcDNA 3.1. All plasmids were sequenced to confirm identity and exclude mutations. The plasmids were transfected into HepG2 and HeLa cells using Lipofectamine (Invitrogen), according to manufacturer's recommendations. Each experiment was performed in quadruplicates and repeated three times. After 72 h, the cells were harvested and counted by a haemocytometer after Trypan Blue staining. Whole cell extracts were prepared for Western blot analysis as described.

Assay [6] concerns HT29 cells. As to conditions: HT29 stable clones, MTT, p<0.01. Here is the method:
(§2) Cells were subjected to selection in 1200 μg/ml G418 and the number of colonies scored manually at the end of 3 weeks.
The colorimetric MTT (3-(4,5-dimethylthiazol-2yl)-2,5-diphenyl-tetrazolium bromide; Sigma) assay was used as a surrogate measure of cell number at various time points. The experiment was performed in replicates of six and repeated twice.

Assay [7] has as its system HeLa cells. Here is the method:
as §2

Regarding `Nc1ncn([C@H]2C[C@H](O)[C@@H](CO)O2)c(=O)n1` [DAC, 5-aza-2′ deoxycytidine], the “PRAPcp-GAPDHcp: crossing point of PRAP normalized by GAPDH” value in assay [1] was found to be 13.8. In addition, in assay [2], the “Fold of increase of PRAP expression relative to untreated HT29” value was determined as 8.5 fold and the “PRAPcp-GAPDHcp: crossing point of PRAP normalized by GAPDH” value worked out at 9.37.

As for `CCCC(=O)[O-].[Na+]` [butyrate, sodium butyrate], the “PRAP gene expression versus control non-treated cells” value in assay [3] (6 days after treatment) amounted to 29 fold. In addition, the “Increase of PRAP gene expression” value in assay [3] (within 24 h) amounted to 20 fold. Further, in assay [4], the “Butyrate concentration giving maximal PRAP expression” value was 2 to 5 mM.

Proline-rich acidic protein [PRAP]: the “Reduction in cell numbers compared to vector-transfected controls” value in assay [5] is on record as 55%. In addition, in assay [6], the “Rate of cell growth of stably transfected clones versus vector controls” value was “significantly lower rate of cell growth”. Moreover, the “Size of colonies compared to controls” value in assay [7] (3 weeks selection in 1200 μg/ml G418) was “reduction in the size”. In assay [7] (3 weeks selection in 1200 μg/ml G418, versus vector), the “Reduction in the number of colonies” value was determined as 50%.

As to `CC(/C=C/C(=O)NO)=C\[C@@H](C)C(=O)c1ccc(N(C)C)cc1` [TSA, trichostatin A], in assay [1], the “Fold of increase of PRAP expression relative to untreated HCT116” value is 5.2 fold and 5.17 fold; the “PRAPcp-GAPDHcp: crossing point of PRAP normalized by GAPDH” value is recorded as 11.6. Further, in assay [2], the “Fold of increase of PRAP expression relative to untreated HT29” value was 8.4 fold and the “PRAPcp-GAPDHcp: crossing point of PRAP normalized by GAPDH” value is listed as 9.38.

B1: PRAP/-SP: truncated PRAP without signal peptide, amino acid 21 to 151 (protein)
chain: VPAPKVPIKMQVKHWPSEQDPEKAWGARVVEPPEKDDQLVVLFPVQKPKLLTTEEKPRGQGRGPILPGTKAWMETEDTLGRVLSPEPDHDSLYHPPPEEDQGEERPRLWVMPNHQVLLGPEEDQDHIYHPQ
On to B1, for which, in assay [5], the “Reduction in cell numbers compared to vector-transfected controls” value is on record as “did not result in a reduction in cell numbers”.
